Melting point data for three molecules are collected here from patent publication US7196094B2, “Farnesyl transferase inhibiting 6-heterocyclylmethyl quinoline and quinazoline derivatives” (Janssen Pharmaceutica, N.V., priority 2000, dated 2007).

As for `Cn1cncc1C(c1ccc2c(c1)c(-c1cccc(Cl)c1)nc1nnnn12)n1ccnc1-c1ccccc1` (stereo not drawn) [Compound 10, 5-(3-chlorophenyl)-7-[(1-methyl-1H-imidazol-5-yl)(2-phenyl-1H-imidazol-1-yl)methyl]-tetrazolo[1,5-a]quinazoline], the melting point – broadly, the temperature, or range, at which the solid turns liquid – was 150 °C.
The value for `Cn1cncc1C(O)(c1ccoc1)c1ccc2c(c1)c(-c1cccc(Cl)c1)cc1nnnn12` (stereo not drawn) [Compound 3, 5-(3-chlorophenyl)-α-(3-furanyl)-α-(1-methyl-1H-imidazol-5-yl)-tetrazolo[1,5-a]quinoline-7-methanol] was 188 °C.
The value for `Cn1cncc1C(O)(c1ccc2ncccc2c1)c1ccc2c(c1)c(-c1cccc(Cl)c1)nc(=O)n2C` (stereo not drawn) [Compound 7, 4-(3-chlorophenyl)-6-[hydroxy(1-methyl-1H-imidazol-5-yl)-6-quinolinylmethyl]-1-methyl-2(1H)-quinazolinone] was 192 °C.
